Experimental data from patent publication US20240041042A1, “1-(PYRIDYL)-5-AZINYLPYRAZOLE DERIVATIVES, AND THEIR USE FOR CONTROL OF UNDESIRED PLANT GROWTH” (Bayer Aktiengesellschaft, priority 2020, published 2024).
Blank lines part the entries; values can stand above or below the molecule they belong to.

Experiments:
Assay type in all cases: in vivo
[1] = test system: Pharbitis purpurea (PHBPU); assay: Pre-emergence herbicidal action against PHBPU; settings: dosage 320 g/ha
In short: (§1)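 Read-out is visual percent damage relative to untreated pots, with 100% meaning dead plants and 0% meaning no difference, assessed roughly three weeks after treatment. Compounds were applied pre-emergence to the covering soil at up to 320 g/ha.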

[2] = test system: Amaranthus retroflexus (AMARE); assay: Pre-emergence herbicidal action against AMARE; settings: visual scoring after about 3 weeks vs untreated controls
In short: as §1

[3] = test system: Alopecurus myosuroides (ALOMY); assay: Post-emergence herbicidal action against ALOMY; settings: visual rating about 3 weeks after treatment vs untreated controls (100% = plants have died, 0% = like control plants)
In short: (§2)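 Post-emergence greenhouse spray, one-leaf stage, 600 l/ha water plus 0.5% additive; WP or EC formulations; application rates 320 g/ha or lower. Visual % damage vs untreated controls at ~3 weeks.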

[4] = test system: Polygonum convolvulus (POLCO); assay: Pre-emergence herbicidal action against POLCO
In short: as §1

[5] = test system: Alopecurus myosuroides (ALOMY); assay: Pre-emergence herbicidal action against ALOMY; settings: scored visually after about 3 weeks, 100% = plants have died
In short: as §1

[6] = test system: Pharbitis purpurea (PHBPU); assay: Post-emergence herbicidal action against PHBPU
In short: as §2

[7] = test system: Verconica persica (VERPE); assay: Pre-emergence herbicidal action against VERPE; settings: dosage 320 g/ha
In short: as §1

Avena fatua (AVEFA) [8] = assay: Pre-emergence herbicidal action against AVEFA; settings: visual scoring after about 3 weeks vs untreated controls
In short: as §1

[9] = test system: Verconica persica (VERPE); assay: Post-emergence herbicidal action against VERPE
In short: as §2

Avena fatua (AVEFA) [10] = assay: Post-emergence herbicidal action against AVEFA; settings: visual rating about 3 weeks after treatment
In short: as §2

[11] = test system: Echinochloa crus-galli (ECHCG); assay: Pre-emergence herbicidal action against ECHCG
In short: as §1

Lolium rigidum (LOLRI) [12] = assay: Pre-emergence herbicidal action against LOLRI
In short: as §1

Viola tricolor (VIOTR) [13] = assay: Pre-emergence herbicidal action against VIOTR
In short: as §1

Setaria viridis (SETVI) [14] = assay: Pre-emergence herbicidal action against SETVI
In short: as §1

Viola tricolor (VIOTR) [15] = assay: Post-emergence herbicidal action against VIOTR
In short: as §2

Lolium rigidum (LOLRI) [16] = assay: Post-emergence herbicidal action against LOLRI
In short: as §2

[17] = test system: Matricaria inodora (MATIN); assay: Post-emergence herbicidal action against MATIN
Procedure: Seeds of monocotyledonous and dicotyledonous weeds and crop plants are placed in sandy loam in plastic or organic planting pots, covered with soil and cultivated in a greenhouse under controlled growth conditions. 2 to 3 weeks after sowing, the test plants are treated at the one-leaf stage. The compounds of the invention, formulated in the form of wettable powders (WP) or as emulsion concentrates (EC), are then sprayed onto the green parts of the plants as aqueous suspension or emulsion with addition of 0.5% additive at a water application rate of 600 l/ha (converted). After the test plants have been kept in the greenhouse under optimum growth conditions for about 3 weeks, the activity of the preparations is rated visually in comparison to untreated controls. For example, 100% activity=the plants have died, 0% activity=like control plants.
Tables B1 to B13 below show the effects of selected compounds of the general formula (I) according to Table 1 on various harmful plants and at an application rate corresponding to 320 g/ha or lower, which were obtained by the experimental procedure mentioned above. The appendices “a”, “b” and “c” give differentiation by dosage used with otherwise the same harmful plants tested.

[18] = test system: Matricaria inodora (MATIN); assay: Pre-emergence herbicidal action against MATIN; settings: dosage 320 g/ha
In short: as §1

[19] = test system: Echinochloa crus-galli (ECHCG); assay: Post-emergence herbicidal action against ECHCG
In short: as §2

Zea mays (ZEAMX) = settings: for Post-emergence action against ZEAMX in %: crop plant compatibility, 80 g/ha, effect vs untreated controls
In short: (§3)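 Percent effect on the crop was judged by eye against untreated controls, where 0% means like control and 100% means dead plants. Plants had been sprayed post-emergence at the one-leaf stage and then kept under optimum greenhouse conditions for about 3 weeks.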

Setaria viridis (SETVI) [20] = assay: Post-emergence herbicidal action against SETVI
In short: as §2

[21] = test system: Amaranthus retroflexus (AMARE); assay: Post-emergence herbicidal action against AMARE; settings: 80 g/ha, visual rating about 3 weeks after treatment vs untreated controls (100% = plants have died, 0% = like control plants)
In short: as §2

Oryza sativa (ORYSA) = settings: crop plant compatibility, 20 g/ha, effect vs untreated controls
In short: as §3

Post-emergence action against ZEAMX in % (Zea mays (ZEAMX)): 0%
Compound: Cc1cccnc1-n1nc(OCC(=O)O)c(Cl)c1-c1ccc(F)nc1 [Example I-323]
Pre-emergence action against PHBPU in % [1]: 90% | Pre-emergence action against AMARE in % ([2]; 80 g/ha): 100% | Pre-emergence action against AMARE in % ([2]; 320 g/ha): 100% | Post-emergence action against ALOMY in % ([3]; 80 g/ha): 100% | Post-emergence action against ALOMY in % ([3]; 320 g/ha): 100% | Pre-emergence action against POLCO in % ([4]; dosage 320 g/ha): 100% | Pre-emergence action against ALOMY ([5]; 80 g/ha): 100% | Pre-emergence action against ALOMY ([5]; 320 g/ha): 100% | Post-emergence action against PHBPU in % ([6]; dosage 320 g/ha): 80% | Pre-emergence action against VERPE in % [7]: 100% | Pre-emergence action against AVEFA in % (Avena fatua (AVEFA) [8]; 80 g/ha): 90% | Pre-emergence action against AVEFA in % (Avena fatua (AVEFA) [8]; 320 g/ha): 100% | Post-emergence action against VERPE in % ([9]; 320 g/ha, VERPE): 90% | Post-emergence action against VERPE in % ([9]; dosage 80 g/ha): 90% | Post-emergence action against AVEFA in % (Avena fatua (AVEFA) [10]; 80 g/ha): 90% | Post-emergence action against AVEFA in % (Avena fatua (AVEFA) [10]; 320 g/ha): 90% | Pre-emergence action against ECHCG in % ([11]; dosage 80 g/ha): 90% | Pre-emergence action against ECHCG in % ([11]; dosage 320 g/ha): 100% | Pre-emergence action against LOLRI in % (Lolium rigidum (LOLRI) [12]; dosage 80 g/ha): 100% | Pre-emergence action against LOLRI in % (Lolium rigidum (LOLRI) [12]; dosage 320 g/ha): 100% | Pre-emergence action against VIOTR in % (Viola tricolor (VIOTR) [13]; 320 g/ha, Viola tricolor): 100% | Pre-emergence action against VIOTR in % (Viola tricolor (VIOTR) [13]; dosage 80 g/ha): 100% | Pre-emergence action against SETVI in % (Setaria viridis (SETVI) [14]; dosage 320 g/ha): 100% | Post-emergence action against VIOTR in % (Viola tricolor (VIOTR) [15]; 80 g/ha): 90% | Post-emergence action against VIOTR in % (Viola tricolor (VIOTR) [15]; 320 g/ha): 90% | Post-emergence action against LOLRI in % (Lolium rigidum (LOLRI) [16]; dosage 80 g/ha): 90% | Post-emergence action against LOLRI in % (Lolium rigidum (LOLRI) [16]; dosage 320 g/ha): 90% | Post-emergence action against MATIN in % ([17]; dosage 320 g/ha): 90% | Pre-emergence action against MATIN in % [18]: 100% | Post-emergence action against ECHCG in % ([19]; dosage 80 g/ha): 90% | Post-emergence action against ECHCG in % ([19]; dosage 320 g/ha): 90% | Post-emergence action against SETVI in % (Setaria viridis (SETVI) [20]; dosage 320 g/ha): 90%

Post-emergence action against ZEAMX in % (Zea mays (ZEAMX)): 0%
Compound: CCOC(=O)COc1nn(-c2ncccc2C)c(-c2ccc(F)nc2)c1Cl [Example I-316]
Pre-emergence action against PHBPU in % [1]: 90% | Pre-emergence action against AMARE in % ([2]; 80 g/ha): 100% | Pre-emergence action against AMARE in % ([2]; 320 g/ha): 100% | Post-emergence action against ALOMY in % ([3]; 80 g/ha): 100% | Post-emergence action against ALOMY in % ([3]; 320 g/ha): 100% | Pre-emergence action against POLCO in % ([4]; dosage 80 g/ha): 100% | Pre-emergence action against POLCO in % ([4]; dosage 320 g/ha): 100% | Pre-emergence action against ALOMY ([5]; 80 g/ha): 90% | Pre-emergence action against ALOMY ([5]; 320 g/ha): 100% | Post-emergence action against PHBPU in % ([6]; dosage 80 g/ha): 90% | Post-emergence action against PHBPU in % ([6]; dosage 320 g/ha): 90% | Pre-emergence action against VERPE in % [7]: 100% | Pre-emergence action against AVEFA in % (Avena fatua (AVEFA) [8]; 320 g/ha): 100% | Post-emergence action against VERPE in % ([9]; 320 g/ha, VERPE): 90% | Post-emergence action against VERPE in % ([9]; dosage 80 g/ha): 90% | Post-emergence action against AVEFA in % (Avena fatua (AVEFA) [10]; 80 g/ha): 90% | Post-emergence action against AVEFA in % (Avena fatua (AVEFA) [10]; 320 g/ha): 100% | Pre-emergence action against ECHCG in % ([11]; dosage 80 g/ha): 100% | Pre-emergence action against ECHCG in % ([11]; dosage 320 g/ha): 100% | Pre-emergence action against LOLRI in % (Lolium rigidum (LOLRI) [12]; dosage 80 g/ha): 100% | Pre-emergence action against LOLRI in % (Lolium rigidum (LOLRI) [12]; dosage 320 g/ha): 100% | Pre-emergence action against VIOTR in % (Viola tricolor (VIOTR) [13]; 320 g/ha, Viola tricolor): 100% | Pre-emergence action against VIOTR in % (Viola tricolor (VIOTR) [13]; dosage 80 g/ha): 100% | Pre-emergence action against SETVI in % (Setaria viridis (SETVI) [14]; dosage 80 g/ha): 100% | Pre-emergence action against SETVI in % (Setaria viridis (SETVI) [14]; dosage 320 g/ha): 100% | Post-emergence action against VIOTR in % (Viola tricolor (VIOTR) [15]; 80 g/ha): 90% | Post-emergence action against VIOTR in % (Viola tricolor (VIOTR) [15]; 320 g/ha): 90% | Post-emergence action against LOLRI in % (Lolium rigidum (LOLRI) [16]; dosage 80 g/ha): 100% | Post-emergence action against LOLRI in % (Lolium rigidum (LOLRI) [16]; dosage 320 g/ha): 100% | Post-emergence action against MATIN in % ([17]; dosage 80 g/ha): 80% | Post-emergence action against MATIN in % ([17]; dosage 320 g/ha): 90% | Pre-emergence action against MATIN in % [18]: 100% | Post-emergence action against ECHCG in % ([19]; dosage 80 g/ha): 90% | Post-emergence action against ECHCG in % ([19]; dosage 320 g/ha): 90% | Post-emergence action against SETVI in % (Setaria viridis (SETVI) [20]; dosage 80 g/ha): 90% | Post-emergence action against SETVI in % (Setaria viridis (SETVI) [20]; dosage 320 g/ha): 90%

Post-emergence action against ZEAMX in % (crop plant compatibility) (Zea mays (ZEAMX); 20 g/ha, ZEAMX, effect in comparison to untreated controls): 10% | Post-emergence action against ORYSA in % (Oryza sativa (ORYSA)): 10%
Compound: O=C(O)COc1nn(-c2ccccn2)c(-c2ccc(F)nc2)c1Cl [Example I-98]
Pre-emergence action against PHBPU in % [1]: 90% | Pre-emergence action against AMARE in % ([2]; 80 g/ha): 100% | Pre-emergence action against AMARE in % ([2]; 320 g/ha): 100% | Post-emergence action against ALOMY in % ([3]; 80 g/ha): 90% | Pre-emergence action against POLCO in % ([4]; dosage 320 g/ha): 90% | Pre-emergence action against ALOMY ([5]; 80 g/ha): 90% | Pre-emergence action against ALOMY ([5]; 320 g/ha): 100% | Pre-emergence action against VERPE in % [7]: 100% | Post-emergence action against AMARE in % [21]: 80% | Pre-emergence action against AVEFA in % (Avena fatua (AVEFA) [8]; 320 g/ha): 80% | Post-emergence action against VERPE in % ([9]; dosage 80 g/ha): 80% | Post-emergence action against AVEFA in % (Avena fatua (AVEFA) [10]; 80 g/ha): 80% | Pre-emergence action against ECHCG in % ([11]; dosage 320 g/ha): 100% | Pre-emergence action against LOLRI in % (Lolium rigidum (LOLRI) [12]; dosage 320 g/ha): 100% | Pre-emergence action against VIOTR in % (Viola tricolor (VIOTR) [13]; 320 g/ha, Viola tricolor): 100% | Pre-emergence action against SETVI in % (Setaria viridis (SETVI) [14]; dosage 320 g/ha): 100% | Post-emergence action against MATIN in % ([17]; dosage 80 g/ha): 80% | Pre-emergence action against MATIN in % [18]: 90% | Post-emergence action against ECHCG in % ([19]; dosage 80 g/ha): 80%
